US8304448B2, “Method for the treatment of metabolic disorder containing benzazole derivatives as an active ingredient” (Korea Research Institute of Bioscience and Biotechnology, priority 2006, dated 2012)

Experiments:
DGAT = assay: Assay for inhibitory activity against DGAT ([14C]triacylglycerol formation, rat microsomal protein); type: biochemical; conditions: rat microsomal protein as enzyme source
Excerpt: The derivatives of Chemical Formula 1 in accordance with the present invention are found to inhibit the enzymatic activity of DGAT at a dose-dependent manner (refer to Table 2 and FIG. 1) as measured in a test in which [^14C]triacylglycerol was quantitatively analyzed after enzymatic reaction between 1,2-diacylglycerol and [^14C]palmitoyl-CoA, with microsomal proteins from rats serving as an enzyme source (refer to Example 1).
After enzymatic reaction between two substrates 1,2-diacylglycerol (Sigma, D0138) and [^14C]palmitoyl-CoA (Amersham, CFA583) with the microsomal protein of rat serving as an enzyme source in accordance with Coleman et al, Methods Enzymol., 98-103, 1992, the resulting product [^14C] triacylglycerol was measured for radioactivity. In detail, to a reaction buffer (175 mM Tris-HCl, pH 8.0, 20 μl bovine serum albumin (10 mg/ml), 100 mM MgCl2, 30 μM [^14C] palmitoyl-CoA (0.02 μCi, Amersham) and 200 μM 1,2-dioleoyl glycerol) was added 10 μl of a solution of the samples in dimethylsulfoxide (DMSO) and then 100˜200 μl of an isolated microsomal protein, followed by reaction at 25° C. for 10 min. The reaction was terminated with 1.5 ml of a mixture of 80:20:2 2-propanol:heptane:water (v:v:v). Thereafter, the [^14C] triacylglycerol thus formed was separated. In this regard, 1 ml of heptane and 0.5 ml of distilled water were added to the reaction mixture, which was then shaken. 1 ml of the supernatant thus formed was mixed with 2 ml of an alkaline ethanol solution (ethanol:0.5 N sodium hydroxide:water=50:10:40, v:v:v), followed by shaking. After being taken, 0.65 ml of the supernatant thus formed was measured for radioactivity using an LSC (liquid scintillation counter). The inhibitory activity against DGAT was calculated according to the following Mathematical Formula 1. The inhibitory effects of the benzazole derivatives on DGAT are summarized in Table 2, below while % DGAT inhibition is plotted against doses of compound 22 and 31 in FIG. 1.
T: Cpm of a test group in which a sample was added to an enzymatic buffer,
C: Cpm of a control in which no samples were added to an enzymatic buffer,
B: Cpm of a control in which a sample was added in the absence of any enzyme source.

[1] = system: ICR mice fed a high-fat diet; assay: In vivo assay for anti-obesity activity in mice fed a high-fat diet; parameters: species or system mouse
Method: Also, the derivatives of Chemical Formula 1 were tested for resistance to obesity by iterative oral administration at a dose of 10 mg/kg into ICR male mice (refer to Example 3). […] When they were administered, the levels of total triglycerides, total cholesterols, and low density lipoprotein (LDL)-cholesterol in the blood recovered to almost normal levels, with a significant increase observed in the level of high density lipoprotein (HDL)-cholesterol in the blood (refer to Tables 6 and 7 and FIGS. 3 and 4).
In order to verify the anti-obesity activity of the benzaldehyde derivatives of Chemical Formula 1 in accordance with the present invention, Compounds 22 and 31 were administered repetitively into rodents as follows.
The experimental animals were 6 week old ICR mice which were purchased from Japan SLC, Inc. via Central Lab. Animal Inc. Korea. They were acclimated to a new environment for one week before use, and fed with a foodstuff commercially available from Deyts, U.S.A. They were bred in an animal lab set at a temperature of 23±3° C. and RH 50±10% under light of 150˜300 Lux for a period of 12 hours (6 a.m.˜6 p.m.) with ventilation 10-20 times/hour. All of the 12 mice used were male, and were organized into two groups of 6. The test group was orally administered once a day at 4 p.m. with 10 mg/kg of the compound (Chemical Formula 1) in the form of a solution in biological saline for 35 days while the control was administered with biological saline only. Xenical, a commercially available lipase inhibitor, was administered orally at a dose of 10 mg/kg once a day as a positive control drug.
The animals were measured for body weight every week and sacrificed on Day 35, after which blood from the heart was sampled. Abdominal fat, epididymal fat, retroperitoneal fat and the liver were excised and weighed. Blood samples were assayed for total triglyceride, total cholesterol, HDL-cholesterol and LDL-cholesterol using respective test kits, all commercially available from Asan Pharmaceutical Co. Ltd., Korea.
For evidence of anti-obesity activity, compounds 22 and 31 were orally administered at regular intervals at a dose of 10 mg/kg into ICR male mice for a predetermined period of time with the concurrent provision of conditional diets thereto. Anatomized abdomens of the animals are given in the photographs of FIG. 2.

ICR mice = assay: Acute toxicity, oral administration for two weeks, mice; type: in vivo; conditions: oral 100 and 250 mg/kg for two weeks
Method: (§1) An assay of the benzazole derivatives of Chemical Formula 1 in accordance with the present invention was performed for acute toxicity on mice (20±5 g, Central Lab. Animal Inc.) and rats (235±10 g, Central Lab. Animal Inc.).
(§2) For this, ICR mice and Sprague-Dawley rats were assigned to 4 groups of 10 and orally administered with Compound 22 in doses of 100 and 250 mg/kg for two weeks.

Sprague-Dawley rats = assay: Acute toxicity, oral administration for two weeks, rats; type: in vivo; conditions: oral 100 and 250 mg/kg for two weeks
Method: as §1, §2

[2] = Day 35, high-fat diet, 10 mg/kg oral, Mean ± SD
[3] = blood, Day 35, high-fat diet, 10 mg/kg oral, Mean ± SD

With `O=C(NCc1ccco1)c1ccc2oc(COc3ccc(C45CC6CC(CC(C6)C4)C5)cc3)nc2c1` [Cpd. 22, 2-(4-adamantan-1-yl-phenoxymethyl)-benzoxazole-5-carboxylic acid (furan-2-ylmethyl)-amide] as the molecule, how does the “DGAT (% inhibition in 5 μM)” value (DGAT; 5 μM) read?
The value was 42.8%.

And the “DGAT (% inhibition in 25 μM)” value (DGAT; 25 μM)?
Its value is 78.03%.

And the “abdominal fat increment (FIG. 2)” value ([1]; 10 mg/kg, compared to groups fed only the high-fat diet, final day)?
Its value is “significantly decreased”.

And the “(Tissue Weight/Body Weight) × 100 Abdominal Fat + Epididymal Fat” value [1, 2]?
Its value is 3.97 ± 0.72.

What about the “(Tissue Weight/Body Weight) × 100 Liver” value [1, 2] of the same molecule?
Its value is 4.66 ± 0.65.

What about the “(Tissue Weight/Body Weight) × 100 Retroperitoneal Fat” value [1, 2] of the same molecule?
Its value is 1.24 ± 1.31.

And the “(Tissue Weight/Body Weight) × 100 Total Fat” value [1, 2]?
The value was 5.24 ± 0.91.

And the “HDL-Cholesterol” value [1, 3]?
Its value is 21.66 ± 2.16 mg/dL.

And the “LDL-Cholesterol” value [1, 3]?
Its value is 37.57 ± 15.14 mg/dL.

And the “Total Cholesterol” value [1, 3]?
Its value is 68.89 ± 14.95 mg/dL.

And the “Total Triglyceride” value [1, 3]?
The value was 48.33 ± 9.83 mg/dL.

And the “inhibition of body weight gain” value ([1]; high-fat diet, 10 mg/kg oral once a day for 35 days)?
The value was 68%.

And the “Body Weight (g) (Mean ± SD) Week 0” value ([1]; high-fat diet, 10 mg/kg oral once a day, Week 0)?
Its value is 26.30 ± 1.27 g.

And the “Body Weight (g) (Mean ± SD) Week 1” value ([1]; high-fat diet, 10 mg/kg oral once a day, Week 1)?
Its value is 34.75 ± 1.75 g.

What about the “Body Weight (g) (Mean ± SD) Week 2” value ([1]; high-fat diet, 10 mg/kg oral once a day, Week 2) of the same molecule?
The value was 37.94 ± 2.33 g.

And the “Body Weight (g) (Mean ± SD) Week 3” value ([1]; high-fat diet, 10 mg/kg oral once a day, Week 3)?
The value was 40.34 ± 3.39 g.

And the “Body Weight (g) (Mean ± SD) Week 4” value ([1]; high-fat diet, 10 mg/kg oral once a day, Week 4)?
The value was 42.48 ± 2.90 g.

What about the “Body Weight (g) (Mean ± SD) Week 5” value ([1]; high-fat diet, 10 mg/kg oral once a day, Week 5) of the same molecule?
The value was 43.90 ± 1.20 g.

What about the apparent symptoms (ICR mice) of the same molecule?
Its apparent symptoms is “no apparent symptoms different from the control”.

What about the apparent symptoms (Sprague-Dawley rats) of the same molecule?
Its apparent symptoms is “no apparent symptoms different from the control”.
